In data set [1] the test system is Actinomyces viscosus T14V. The format is cell-based. To be noted: for % Red. / Bact. Count (Log 10): Table VIII.
Text: The SIKT test is a basic microbiological test which incorporates a fixed contact time. […] The system is then neutralized to inhibit further antimicrobial activity. The surviving bacteria are enumerated using plate count methodology. The reduction in counts compared to a water control is the basis for expressing activity. A three log reduction is usually considered significant.
The test system of another data set is Rat. The settings on record: cited from earlier work.
[2] abbreviates: Table VI, rinses, with and without Carbopol polymers.
[3] abbreviates: oral, values reported in the literature.

Read-outs that look alike come from different tables or passages of the source. Some results are limits rather than exact numbers.

`[H]/N=C(\N/C(=N/[H])NCCCCCCNC(=N)NC(=N)Nc1ccc(Cl)cc1)Nc1ccc(Cl)cc1` [Chlorhexidine, reference compound]: in data set [1] (setting [2]), the “% Reduction” value is recorded as over 99.00% and the “Bacterial Count (log 10)” value was determined as 4.52 log 10.
As to `CC(C)=CCC[C@](C)(O)C1CC=C(C)CC1` (stereo partly drawn) [Bisabolol], in the data set with Rat (setting [3]), the “LD 50 (Oral, Rat)” value is recorded as 5000 mg/kg.
Consider `COC(=O)c1ccccc1O` [Methyl salicylate, reference compound], for which, in the data set with Rat (in vivo, po), the “LD 50 (Oral, Rat)” value is on record as 887 mg/kg.
For the compound `Cc1ccc(C(C)C)c(O)c1` [Thymol, reference compound], the “% Red.” value in data set [1] (concentration 0.01) is 0%; in data set [1] (concentration 0.02) it was 0%; in data set [1] (concentration 0.04) it was 0%; in data set [1] (concentration 0.06), 99.99%; in data set [1] (concentration 0.07) it was over 99.99%; in data set [1] (concentration 0.08), over 99.99%. For the same compound, the “Bact. Count (Log 10)” value in data set [1] (concentration 0.01) is reported as 6.67 Log 10; in data set [1] (concentration 0.02), 6.71 Log 10; in data set [1] (concentration 0.04), 6.23 Log 10; in data set [1] (concentration 0.06), 3.93 Log 10; in data set [1] (concentration 0.07), under 2.00 Log 10; in data set [1] (concentration 0.08), under 2.00 Log 10.
On to `CC(C)=CCCC(C)=CCCC(C)=CCO` [Farnesol], for which the “% Red.” value in data set [1] (concentration 0.005) is recorded as 99.9%; in data set [1] (concentration 0.0075), over 99.99%; in data set [1] (concentration 0.01), over 99.99%; in data set [1] (concentration 0.02), over 99.99%; in data set [1] (concentration 0.04), over 99.99%; in data set [1] (concentration 0.06) it was over 99.99%. For the same compound, the “% Red.” value in data set [1] (concentration 0.07) and in data set [1] (concentration 0.08) was over 99.99% in each case. The “Bact. Count (Log 10)” value is 3.66 Log 10 in data set [1] (concentration 0.005); 2.50 Log 10 in data set [1] (concentration 0.0075); under 2.00 Log 10 in data set [1] (concentration 0.01); under 2.00 Log 10 in data set [1] (concentration 0.02); under 2.00 Log 10 in data set [1] (concentration 0.04); under 2.00 Log 10 in data set [1] (concentration 0.06). Besides, the “Bact. Count (Log 10)” value in data set [1] (concentration 0.07) and in data set [1] (concentration 0.08) was under 2.00 Log 10 in each case.
`C=CC(C)(O)CCC=C(C)CCC=C(C)C` (stereo not drawn) [Nerolidol]: the “LD 50 (Oral, Rat)” value in the data set with Rat (setting [3]) is on record as over 5000 mg/kg.
